Measurements as given in US20060142359A1, “Cyclopenta[c]isoxazole-3-amines used as protective agents for materials” (priority 2002, published 2006).
≈ marks a conversion by molar mass, not a printed value. Like-named read-outs stand apart in the source and are kept apart here. Each block holds one molecule with its values, some of them ahead of it.

Columns and labels:
[1] = tested on: Pseudomonas aeruginosa NCIB 6749; test: MIC antibacterial action (Use Example D, analogous to A); assay type: cell-based; conditions: NCIB6749, 72 h
Description: (§1) A defined Landy Agar was admixed with active compounds according to the invention in concentrations of […]. The MIC was determined after 3 days of storage at 28° C. and 60-70% relative atmospheric humidity. The MIC is the lowest concentration of active compound at which there is no colonization by the microbial species used.
Analogously to Use Example A, the minimum inhibitory concentrations (MIC) of active compounds according to the invention were determined. Both on chemically defined medium and on complex medium, the compounds tested had minimum inhibitory concentrations </=100 ppm against Pseudomonas aeruginosa NCIB 6749: […]

Fusarium solani = test: MIC antifungal action (Use Example C, analogous to B); assay type: cell-based; conditions: analogously to Use Example B, read-out: minimum inhibitory concentrations (MIC) Fusarium solani
Description: (§2) An agar which had been prepared using malt extract was admixed with active compounds according to the invention in concentrations of from 0.1 mg/l to 5000 mg/l. The MIC was determined after 3 weeks of storage at 28° C. and 60-70% relative atmospheric humidity. The MIC is the lowest concentration of active compound at which there is no colonization by the microbial species used. Analogously to Use Example B, the minimum inhibitory concentrations (MIC) of active compounds according to the invention were determined. Against fungi such as Fusarium solani, Geotrichum candidum and Rhodotorula rubra the compounds tested had minimum inhibitory concentrations of <500 ppm: […]

Geotrichum candidum = test: as above; assay type: cell-based; conditions: analogously to Use Example B, read-out: minimum inhibitory concentrations (MIC) Geotrichum candidum
Description: as §2

Rhodotorula rubra = test: as above; assay type: cell-based; conditions: analogously to Use Example B, read-out: minimum inhibitory concentrations (MIC) Rhodotorula rubra
Description: as §2

Bacillus subtilis = test: MIC against bacteria on Landy agar (Use Example A); assay type: cell-based; conditions: 72 h, 3 days at 28° C., 60-70% relative atmospheric humidity, read-out: Minimum inhibitory concentrations Bacillus subtilis
Description: as §1

Pseudomonas aeroginosa = test: MIC against bacteria on Landy agar (Use Example A); assay type: cell-based; conditions: 72 h, 3 days at 28° C., 60-70% relative atmospheric humidity, read-out: Minimum inhibitory concentrations Pseudomonas aeroginosa
Description: as §1

Aspergillus niger = test: MIC against fungi on malt extract agar (Use Example B); assay type: cell-based; conditions: 504 h, 3 weeks at 28° C., 60-70% relative atmospheric humidity, read-out: Minimum inhibitory concentrations Aspergillus niger
Description: (§3) The MIC was determined after 3 weeks of storage at 28° C. and 60-70% relative atmospheric humidity. The MIC is the lowest concentration of active compound at which there is no colonization by the microbial species used.

Chaetomium globosum = test: as above; assay type: cell-based; conditions: 504 h, 3 weeks at 28° C., 60-70% relative atmospheric humidity, read-out: Minimum inhibitory concentrations Chaetomium globosum
Description: as §3

Penicillium brevicaule = test: as above; assay type: cell-based; conditions: 504 h, 3 weeks at 28° C., 60-70% relative atmospheric humidity, read-out: Minimum inhibitory concentrations Penicillium brevicaule
Description: as §3

[2] = chemically defined medium, read-out: MIC values (chem.def. medium)
[3] = complex medium, read-out: MIC values (complex medium)

SMILES: O=C(c1ccco1)N(C(=O)c1ccco1)c1onc2c1CCC2 [Example 17]
- melting point: 150 °C

SMILES: CC(C)CC(=O)N(C(=O)CC(C)C)c1onc2c1CCC2 [Example 16]
- melting point: 35 °C

SMILES: Nc1onc2c1CCC2 [Example 1, 5,6-dihydro-4H-cyclopenta[c]isoxazole-3-amine]
- MIC (Bacillus subtilis): < 40 µg/mL
- MIC (Pseudomonas aeroginosa): < 100 µg/mL
- MIC (Aspergillus niger): < 100 µg/mL
- MIC (Chaetomium globosum): < 100 µg/mL
- MIC (Penicillium brevicaule): < 100 µg/mL

SMILES: S=C(Nc1ccccc1)Nc1onc2c1CCC2 [Example 23]
- melting point: 146 °C

SMILES: CCCCNC(=S)Nc1onc2c1CCC2 [Example 6, N-butyl-N′-(5,6-dihydro-4H-cyclopenta[c]isoxazol-3-yl)thiourea]
- melting point: 93 °C

SMILES: CC(C)(C)C(=O)Nc1onc2c1CCC2 [Example 3, N-(5,6-dihydro-4H-cyclopenta[c]isoxazol-3-yl)-2,2-dimethylpropanamide]
- melting point: 113 °C

SMILES: CNc1onc2c1CCC2 [Example 2, N-methyl-5,6-dihydro-4H-cyclopenta[c]isoxazole-3-amine]
- melting point: 52 °C

SMILES: Fc1ccc(/C=N\c2onc3c2CCC3)cc1 [Example 28]
- melting point: > 260 °C

SMILES: O=C(Nc1ccccc1)Nc1onc2c1CCC2 [Example 5, N-(5,6-dihydro-4H-cyclopenta[c]isoxazol-3-yl)-N′-phenylurea]
- MIC (Bacillus subtilis): < 40 µg/mL
- MIC (Pseudomonas aeroginosa): < 100 µg/mL
- MIC (Aspergillus niger): 200 µg/mL (≈ 822 µM)
- MIC (Chaetomium globosum): 100 µg/mL (≈ 411 µM)
- MIC (Penicillium brevicaule): 100 µg/mL (≈ 411 µM)
- melting point: 202 °C

SMILES: O=C(Nc1onc2c1CCC2)NC1CCCCC1 [Example 19]
- MIC (Bacillus subtilis): 100 µg/mL (≈ 401 µM)
- MIC (Pseudomonas aeroginosa): 400 µg/mL (≈ 1600 µM)
- melting point: 152 °C

SMILES: CCCCC/C=N\c1onc2c1CCC2 [Example 27]
- melting point: 125 °C

SMILES: CC(C)S(=O)(=O)Nc1onc2c1CCC2 [Example 24]
- melting point: 91 °C

SMILES: CC(C)C(=O)Nc1onc2c1CCC2 [Example 12]
- melting point: 116 °C

SMILES: O=C(Nc1ccc(Cl)cc1)Nc1onc2c1CCC2 [Example 21]
- melting point: 225 °C

SMILES: Cc1ccc(NC(=O)Nc2onc3c2CCC3)c(C)c1 [Example 22]
- melting point: 230 °C

SMILES: Cc1ccc(S(=O)(=O)Nc2onc3c2CCC3)cc1 [Example 25]
- melting point: 112 °C

SMILES: O=S(=O)(Nc1onc2c1CCC2)c1ccccc1 [Example 7, N-(5,6-dihydro-4H-cyclopenta[c]isoxazol-3-yl)benzenesulfonamide]
- MIC (Bacillus subtilis): 100 µg/mL (≈ 378 µM)
- MIC (Pseudomonas aeroginosa): 400 µg/mL (≈ 1510 µM)
- melting point: 132 °C

SMILES: O=C(Nc1onc2c1CCC2)C(F)(F)F [Example 14]
- MIC (Bacillus subtilis): < 40 µg/mL
- MIC (Pseudomonas aeroginosa): < 100 µg/mL
- MIC (Aspergillus niger): 100 µg/mL (≈ 454 µM)
- MIC (Chaetomium globosum): 100 µg/mL (≈ 454 µM)
- MIC (Penicillium brevicaule): 100 µg/mL (≈ 454 µM)
- melting point: 118 °C

SMILES: C(=N/c1onc2c1CCC2)/c1ccccc1 [Example 8, N-(5,6-dihydro-4H-cyclopenta[c]isoxazol-3-yl)-N-(-phenylmethylidene)amine]
- melting point: 166 °C

SMILES: CCCC(=O)N(C(=O)CCC)c1onc2c1CCC2 [Example 15]
- MIC (Bacillus subtilis): 100 µg/mL (≈ 378 µM)
- MIC (Pseudomonas aeroginosa): < 100 µg/mL
- MIC (Aspergillus niger): > 400 µg/mL
- MIC (Chaetomium globosum): 100 µg/mL (≈ 378 µM)
- MIC (Penicillium brevicaule): 200 µg/mL (≈ 757 µM)

SMILES: Cc1ccc(NC(=O)Nc2onc3c2CCC3)cc1 [Example 20]
- melting point: 218 °C

More lines, now with the values ahead:

- MIC [1, 2]: 20 µg/mL (≈ 68.4 µM)
- MIC [1, 3]: 10 µg/mL (≈ 34.2 µM)
SMILES: C=CCOC(=O)N(C(=O)OCC=C)c1onc2c1CCC2 [Example 43]

- melting point: 167 °C
SMILES: C(=N/c1onc2c1CCC2)/c1ccccn1 [Example 33]

- MIC [1, 2]: 10 µg/mL (≈ 30.8 µM)
- MIC [1, 3]: 5 µg/mL (≈ 15.4 µM)
SMILES: CC(C)COC(=O)N(C(=O)OCC(C)C)c1onc2c1CCC2 [Example 37]

- MIC (Fusarium solani): 50 µg/mL (≈ 189 µM)
- MIC (Geotrichum candidum): 100 µg/mL (≈ 378 µM)
- MIC (Rhodotorula rubra): 100 µg/mL (≈ 378 µM)
- MIC [1, 2]: 50 µg/mL (≈ 189 µM)
- MIC [1, 3]: 20 µg/mL (≈ 75.7 µM)
SMILES: C=COC(=O)N(C(=O)OC=C)c1onc2c1CCC2 [Example 38]

- MIC (Fusarium solani): 200 µg/mL (≈ 469 µM)
- MIC (Geotrichum candidum): 500 µg/mL (≈ 1170 µM)
- MIC (Rhodotorula rubra): 500 µg/mL (≈ 1170 µM)
- MIC [1, 2]: 10 µg/mL (≈ 23.5 µM)
- MIC [1, 3]: 5 µg/mL (≈ 11.7 µM)
SMILES: O=C(OCCBr)N(C(=O)OCCBr)c1onc2c1CCC2 [Example 42]

- MIC [1, 2]: 100 µg/mL (≈ 229 µM)
- MIC [1, 3]: 50 µg/mL (≈ 115 µM)
SMILES: CCCCC(CC)COC(=O)N(C(=O)OCC(CC)CCCC)c1onc2c1CCC2 (stereo not drawn) [Example 34]

- MIC [1, 2]: 10 µg/mL (≈ 34.2 µM)
- MIC [1, 3]: 10 µg/mL (≈ 34.2 µM)
SMILES: C=C(C)OC(=O)N(C(=O)OC(=C)C)c1onc2c1CCC2 [Example 35]

- melting point: 238 °C
SMILES: Cc1ccc(/C=N\c2onc3c2CCC3)cc1 [Example 30]

- melting point: 190 °C
SMILES: Clc1ccc(/C=N\c2onc3c2CCC3)cc1 [Example 29]

- melting point: > 260 °C
SMILES: FC(F)(F)c1ccc(/C=N\c2onc3c2CCC3)cc1 [Example 32]

- MIC [1, 2]: 10 µg/mL (≈ 21.1 µM)
- MIC [1, 3]: 5 µg/mL (≈ 10.5 µM)
SMILES: O=C(OCC(Cl)(Cl)Cl)N(C(=O)OCC(Cl)(Cl)Cl)c1onc2c1CCC2 [Example 36]

- MIC (Fusarium solani): 200 µg/mL (≈ 593 µM)
- MIC (Geotrichum candidum): 500 µg/mL (≈ 1480 µM)
- MIC (Rhodotorula rubra): 200 µg/mL (≈ 593 µM)
- MIC [1, 2]: 10 µg/mL (≈ 29.7 µM)
- MIC [1, 3]: 5 µg/mL (≈ 14.8 µM)
SMILES: O=C(OCCCl)N(C(=O)OCCCl)c1onc2c1CCC2 [Example 41]

- MIC [1, 2]: 20 µg/mL (≈ 51 µM)
- MIC [1, 3]: 20 µg/mL (≈ 51 µM)
SMILES: O=C(OCc1ccccc1)N(C(=O)OCc1ccccc1)c1onc2c1CCC2 [Example 40]

- melting point: 249 °C
SMILES: COc1ccc(/C=N\c2onc3c2CCC3)cc1 [Example 31]
